In this data set the test system is human liver microsomes, metabolic stability half-life. Nature of the data set: NCATS Human Liver Microsomal (HLM) Stability Profiling. The following applies: higher = more stable; screened at 1 µM (by protocol). In short, it runs like this: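 Half-life derived from parent loss over 0–60 min (0, 5, 10, 15, 30, 60 min) at 37 °C. Incubations: 0.5 mg/mL microsomes, 1 µM test article, NADPH regeneration, pH 7.4 phosphate; quenched in acetonitrile containing albendazole, analysed by MS.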

Consider `Cc1cc(O)c2c(c1)C(=O)c1cccc(O)c1C2=O`, for which the half-life – broadly, the time in which the quantity being followed falls by half – came to 1.86 min.

`CC1COC2(c3ccccc3Cl)c3cc(Cl)ccc3NC(=O)CN12` (stereo not given): the half-life came out at 9.03 min.

Regarding `O=c1[nH]c([C@@H]2CCCN2)nc2c1oc1ccc(Cl)cc12`, the half-life was > 120 min. In turn, `CN(C)CCN(Cc1cccs1)c1ccccn1` gave a half-life of 23.8 min. Molecule `CC(C)CC(N(C)C)C1(c2ccc(Cl)cc2)CCC1` (stereo not given) yielded a half-life of 3.57 min. `Cc1nc2c(-c3cnc(N)nc3)nc(N3CCOCC3)nc2n1C(C)C`: the half-life is > 120 min.

As to `COP(=O)(OC)Oc1ccc([N+](=O)[O-])cc1`, the half-life came out at 13.3 min.

For `O=c1[nH]c2cccc(N3CCN(Cc4ccc(-c5ccccc5)cc4)CC3)c2o1`, the half-life was 31.7 min. Molecule `Nc1nc(NCC2CCC(CNS(=O)(=O)c3cccc4ccccc34)CC2)nc2ccccc12` (stereo not given) had a half-life of 1.35 min. Consider `O=C(O)Cc1ccc2oc(-c3ccc(NC(=O)/C=C/c4ccc(Br)cc4)c(F)c3)nc2c1`, for which the half-life is > 120 min. Molecule `CCN(C(=O)c1sc2cc(OC)ccc2c1Cl)c1ccccc1` showed a half-life of 3.3 min. With `CC(C)(C)C(=O)OCOP(=O)(COCCn1cnc2c(N)ncnc21)OCOC(=O)C(C)(C)C`, the half-life worked out at 3.13 min.

`Cc1ccc(C(=O)c2cc(O)c(O)c([N+](=O)[O-])c2)cc1` came in with a half-life of 34.1 min. `Cc1nn(CC(=O)NCCc2ccccc2)c(=O)c2c1sc1ccccc12` gave a half-life of 6.82 min. For `CC(C)NC(=O)COc1cccc(-c2nc(Nc3ccc4[nH]ncc4c3)c3ccccc3n2)c1`, the half-life was 23.4 min.

Turning to `CCNP(=S)(OC)O/C(C)=C/C(=O)OC(C)C` (stereo not given), the half-life is > 120 min. Regarding `O=C1CC2(CCCC2)CC(=O)N1CCNC[C@H]1COc2ccccc2O1`, the half-life was 8.26 min. Turning to `N[C@@H](Cc1ccc(Oc2cc(I)c(O)c(I)c2)c(I)c1)C(=O)O`, the half-life is > 120 min. Molecule `CN(C)S(=O)(=O)c1ccc(S(=O)(=O)N(Cc2ccccc2Cl)C[C@@H]2CCCO2)cc1` gave a half-life of 1.28 min. `Cc1ncc(Cl)cc1NCc1ccc(C(=O)NC(CC2CCCC2)C(=O)NC2CC2)s1` (stereo not given) returned a half-life of 6.13 min. In the case of `CCCCNc1c(C(=O)OCC)c(C)nc2c1cnn2CC`, the half-life was determined as 5.85 min.

With `N#Cc1cn([C@@H]2O[C@H](CO)[C@H](O)[C@@H]2O)c2ncnc(N)c12`, the half-life is > 120 min. In turn, `O=C(NCC1CCN(Cc2cccc(Cl)c2)CC1)[C@@H]1CCCN(c2ncnc3c2nc2n3CCCC2)C1` yielded a half-life of 8.65 min. The same measure for `CO/N=C(\C(=O)O)c1csc(NC(=O)CCl)n1`: 11.4 min. With `O=C(N/N=C/C1C=CC([N+](=O)[O-])O1)c1ccc(O)cc1` (stereo not given), the half-life was > 120 min. `COc1ccc(CCNc2nc(SCc3ccccc3Cl)nc3ccccc23)cc1OC` came in with a half-life of 7.1 min. On to `O=C(NC1CC1)C1CCCN1C(=O)c1cccc(-c2ccccn2)c1` (stereo not given), for which the half-life was > 120 min. On to `CN1C(C(=O)Nc2ccccn2)=C(O)c2sccc2S1(=O)=O`, for which the half-life was > 120 min. `O=C(Nc1cccc(C(F)(F)F)c1)Nc1cc(S(=O)(=O)NC2CC2)ccc1-c1ccsc1`: the half-life was 4.46 min. `COc1cc(C(=O)NC(c2ccccc2Cl)c2cc(Cl)c3cccnc3c2O)cc(OC)c1OC` (stereo not given) showed a half-life of 25.6 min. As to `CNC(=O)c1cnn(-c2nc(N)c3ncn([C@@H]4O[C@H](CO)[C@@H](O)[C@H]4O)c3n2)c1`, the half-life is > 120 min.

For the molecule `CN1CCC(COc2cnc(-c3cccc(Cn4nc(-c5cccc(C#N)c5)ccc4=O)c3)nc2)CC1`, the half-life is > 120 min. The same measure for `CCOc1ncc(S(=O)(=O)N2CCN(CC)CC2)cc1-c1nc2c(CC)n(CCOC)nc2c(=O)[nH]1`: 76.2 min. The same measure for `C[C@]12CC[C@@H]3c4ccc(O)cc4CC[C@H]3[C@@H]1CCC2=O`: 34.1 min; for `CC1(C)O[C@@H]2C[C@H]3[C@@H]4C[C@H](F)C5=CC(=O)CC[C@]5(C)[C@H]4[C@@H](O)C[C@]3(C)[C@]2(C(=O)CO)O1`: 18 min; for `CCOC(=O)[C@H](CCc1ccccc1)N[C@H]1CCCN2CCC[C@@H](C(=O)O)N2C1=O`: 16.7 min. `CC(=O)[C@H]1CC[C@H]2C3CC=C4C[C@@H](O)CC[C@]4(C)C3CC[C@]12C` (stereo not given in full): the half-life worked out at 106 min. Molecule `COc1ccc(CCNc2ncnc3c2c(-c2ccccc2)cn3-c2cccc(Cl)c2)cc1OC` returned a half-life of 3.59 min. With `COP(=S)(OC)Oc1ccc(SC)c(C)c1`, the half-life was found to be 4.44 min.

The molecule `CC1=C(C(=O)Nc2cc3cn[nH]c3cc2F)C(c2ccc(Cl)cc2F)N=C(c2ccnc(Cl)c2)N1` (stereo not given) had a half-life of 14.2 min.

On to `CS(=O)(=O)c1cccc(CNc2nc(Nc3ccc4c(c3)CCC(=O)N4)ncc2C(F)(F)F)c1`, for which the half-life is > 120 min.

`Cc1ccc(Cl)cc1N1CCN(C(=O)c2cn(C3CCCCC3)c(=O)c3c2c2ccccc2n3C)CC1` came in with a half-life of 0.92 min. Consider `O=C(Nc1c(-c2cccs2)nc2ccccn12)c1ccc(Cl)cc1`, for which the half-life is > 120 min. Regarding `c1ccc2c(c1)CCC[C@H]2C1=NCCN1`, the half-life is > 120 min.

The molecule `COc1ccc2c(c1)CCCC2=O` came in with a half-life of 17.6 min.

Molecule `CC(C)NC(=O)c1ccc(C=O)cc1` showed a half-life of 3.1 min. As for `COCCCNC(=O)CCC(=O)NNc1nc2ccccc2c2nc(-c3ccccc3)nn12`, the half-life is > 120 min.

Take `CC(C)(C)NCc1cc(Nc2ccnc3cc(Cl)ccc23)c2c(c1O)CCCC2`: the half-life was > 120 min.

Molecule `CCN1CCN(C(=O)c2cc(-c3ccc(F)cc3)nc3c2cnn3C)CC1` gave a half-life of 99.2 min. The same measure for `O=C(CCBr)N1CCN(C(=O)CCBr)CC1`: > 120 min; for `Cc1cc(C(=O)N2CCCCc3ccccc32)ccc1CNC(=O)N1CCC[C@H]1C(=O)N(C)C`: 6.54 min. As to `Cc1cccc(C)c1NC(=O)[C@H]1CCCCN1C`, the half-life is > 120 min.

`COc1cc2c(Nc3ccc(Cl)c(Cl)c3F)ncnc2cc1OCC1C[C@@H]2CN(C)C[C@@H]2C1` (stereo not given in full) registered a half-life of 61.9 min. The same measure for `COc1cnc(-c2ccc(Cn3c(CC(C)(C)C(=O)O)c(SC(C)(C)C)c4cc(OC[C@@H]5Cc6ccccc6N5C(C)=O)ccc43)cc2)nc1`: 12.1 min; for `N#Cc1cnc2cnc(NCc3cccnc3)cc2c1Nc1ccc(F)c(Cl)c1`: 12.4 min. As for `CC(=O)N1CCN(C(=O)Cc2ccc(Nc3ncc(F)c(Nc4ccc(C(=O)Nc5ccccc5Cl)cc4)n3)cc2)CC1`, the half-life came out at 15.6 min.

The molecule `COc1cc(NC(=O)Nc2cccc(CNC(=O)O[C@H]3CCOC3)c2)ccc1-c1cnco1` displayed a half-life of 27.7 min. As for `CCN(Cc1ccncc1)C(=O)[C@@H](CO)c1ccccc1`, the half-life was > 120 min. Turning to `O=C(O)c1ccc(CN2CC(COc3ccccc3)C3(C2)CN(c2ccccc2)C3)cc1` (stereo not given), the half-life came to 64.8 min. `CCCNC(=O)C1CCC(Cn2c(=O)c3sccc3n(CC(=O)NCc3ccccc3)c2=O)CC1` (stereo not given) returned a half-life of 11.2 min. The molecule `Cc1ccccc1C(=O)N1CCC(C(=O)N2CCC(N3Cc4ccccc4C3=O)CC2)CC1` came in with a half-life of 93.1 min. Take `COc1cc2c(c(OC)c1OC)-c1ccc(OC)c(=O)cc1[C@@H](NC(C)=O)CC2`: the half-life was > 120 min. Consider `CC(C)COC(=O)c1ccc(N)cc1`, for which the half-life is 11.4 min.

In turn, `O=c1c(-c2ccccc2)c1-c1ccccc1` came in with a half-life of 3.57 min. As to `CC(C)(C)NC[C@H](O)c1cc(O)cc(O)c1`, the half-life was > 120 min. Regarding `CCOC(=O)c1ncn2c1CN(C)C(=O)c1cc(F)ccc1-2`, the half-life was > 120 min. On to `CC(C)Oc1ccc2c(=O)c(-c3ccccc3)coc2c1`, for which the half-life was 16.1 min. Next, `COC(=O)c1cc(S(N)(=O)=O)ccc1OC`: 43.2 min; `CC(C)(O)c1ccc2c(c1)ncn2-c1cccc(-c2ccccc2C#N)c1`: > 120 min. `CCOC(=O)C1(c2ccccc2)CCN(CCc2ccc(N)cc2)CC1` showed a half-life of 86.5 min. On to `CCN(CC)C(=O)c1cccc(C)c1`, for which the half-life is > 120 min. Turning to `Nc1ncnc2c1ncn2[C@H]1O[C@@H](C(=O)N2CCN(CC(=O)Nc3cccc4c3CNC4=O)CC2)[C@H](O)[C@@H]1O`, the half-life is > 120 min. The same measure for `N#C/C(=C1\SCC(c2ccccc2Cl)S1)n1ccnc1` (stereo not given): 86.2 min; for `CCOc1cc(OCC)c(C(=O)CCC(=O)O)cc1OCC`: > 120 min.

For the molecule `Cc1nc2c3ccccc3nc(NNC(=O)CCC(=O)N3CCN(c4cccc(Cl)c4)CC3)n2n1`, the half-life turned out to be 10.9 min. As for `Fc1ccc([C@@H]2CCNC[C@H]2COc2ccc3c(c2)OCO3)cc1`, the half-life worked out at 71.3 min. For `COc1ccccc1N1CCN(CCCNc2cc(=O)n(C)c(=O)n2C)CC1`, the half-life is > 120 min. With `Cc1cc(C(C)Nc2ccccc2C(=O)O)c2nc(N3CCOCC3)cc(=O)n2c1` (stereo not given), the half-life was > 120 min. Turning to `CC(C)(N)c1ccc(-c2nc3ccccc3nc2-c2ccccc2)cc1`, the half-life was > 120 min. Molecule `COc1ccc(C(=O)C2CCN(CC(=O)N(Cc3nc4c(c(=O)[nH]3)COCC4)CC3CC3)CC2)cc1` showed a half-life of 81.7 min. Next, `CCOC(=O)C1=Cc2ccc(C(F)(F)C(F)(F)F)cc2N=C(N)C1`: 9.93 min; `CC[C@@H]([C@H](C)O)n1ncn(-c2ccc(N3CCN(c4ccc(OC[C@@H]5CO[C@@](Cn6cncn6)(c6ccc(F)cc6F)C5)cc4)CC3)cc2)c1=O`: > 120 min; `Cc1nc(N)nc(N)c1-c1ccc(Cl)c(Cl)c1`: > 120 min. In the case of `CCN(Cc1ccc(Cl)nc1)/C(=C/[N+](=O)[O-])NC`, the half-life was > 120 min. Consider `COc1cc2c(cc1OC)CN(C(=O)[C@H](C)N[C@@H](CCc1ccccc1)C(=O)O)[C@H](C(=O)O)C2`, for which the half-life was > 120 min. For `O=C(NC1(c2ccccc2)CC1)c1c(CN2CCC(N3CCCCC3)CC2)c(-c2cccc(C(F)(F)F)c2)nc2cc(Br)ccc12`, the half-life came out at 28.1 min. With `COCCc1ccc(OC[C@H](O)CNC(C)C)cc1`, the half-life is > 120 min. The molecule `C#CCN(Cc1cc2c(=O)[nH]c(C)nc2cc1Br)c1ccc(C(=O)NCc2cccnc2)cc1` displayed a half-life of 9.7 min. As for `CCN(CC)CCOc1ccc2c(c1)C(=O)c1cc(OCCN(CC)CC)ccc1-2`, the half-life is > 120 min. Molecule `Cc1ccc2c(c1)c1c(n2CCc2ccc(C)nc2)CCN(C)C1` yielded a half-life of 8.67 min.

Values taken from PubChem BioAssay AID1963597 (National Center for Advancing Translational Sciences (NCATS), 2024).
